What was measured:
Format in all cases: cell-based, human
[1] = system: MRE11 deficient A2780cis cells; test: FEN1 inhibitor cytotoxicity, MRE11 deficient A2780cis; details: vs A2780cis control
[2] = system: PEO4 spheroids; test: 3D spheroid assay, PEO4; details: FEN1i/cisplatin combination vs cisplatin or FEN1i monotherapy
Experimental: with ice cold PBS and fixed in 70% ethanol for 1h at -20°C. After removal of the fixative solution by centrifugation, cells were stained with 2 µg/ml of phospho-Histone (γH2AX) Ser139 (16202A, Millipore, UK) to detect DSBs.
Cell cycle progression: Cells were treated with 20 µg/ml RNase A (12091021, Invitrogen) and then 10 µg/ml Propidium Iodide (P4170, Sigma Aldrich) was added to determine the cell cycle distribution. The samples were analysed on a Beckman-Coulter FC500 flow cytometer using a 488nm laser for excitation and emission data for PI collected using a 620nm bandpass filter (FL3) and a 525nm bandpass filter (FL1) for FITC-anti-phospho-Histone H2A.X.
Apoptosis detection: Annexin V detection kit (556547, BD Biosciences) was used to quantify apoptotic cells. Briefly, cells were trypsinized, washed with PBS and the cellular pellet was re-suspended in Anexin Binding Buffer (1×). […] All the samples were analysed on a Beckman-Coulter FC500 flow cytometer. The percentage of apoptotic cells was determined (late apoptotic = FITC-Annexin V positive, PI positive early apoptotic = FITC-Annexin V positive, PI negative; live cells = FITC-Annexin V negative, PI negative) and compared for untreated and treated samples. […]
To quantify cell viability, LIVE/DEAD Viability/Cytotoxicity Kit (L3224, Thermo Fisher Scientific) was used. […] At least 10 spheroids were measured. […]

[3] = system: POLβ KO A2780cis cells; test: Annexin V apoptosis detection, POLβ KO A2780cis; details: FEN1i-treated
Experimental: Apoptosis detection: Annexin V detection kit (556547, BD Biosciences) was used to quantify apoptotic cells. Briefly, cells were trypsinized, washed with PBS and the cellular pellet was re-suspended in Anexin Binding Buffer (1×). Following, FITC Anexin V and Propidium Iodide were added to the cells. After incubation, Anexin binding Buffer (1×) was added to each tube. All the samples were analysed on a Beckman-Coulter FC500 flow cytometer. The percentage of apoptotic cells was determined (late apoptotic = FITC-Annexin V positive, PI positive early apoptotic = FITC-Annexin V positive, PI negative; live cells = FITC-Annexin V negative, PI negative) and compared for untreated and treated samples. Graphical representation and statistical analysis was performed in GraphPad Prism 7 (GraphPad, La Jolla, USA).
3D Spheroid assays: A2780_control and A2780 FEN1_ KO as well as A2780cis_control and A2780cis FEN1_ KO cells were seeded at 4500 cells/cm2 density in ultra-low attachment 6-well plates (174932, Thermo Fisher Scientific) and cultured in 3D Tumorsphere Medium (C28070, PromoCell, UK) at 37°C in a 5% CO2 atmosphere. Cells were keep in culture for 7-10 days, toping up with fresh medium every two days until spheroids structures were formed.

[4] = system: FEN1 mRNA in A2780 cells; test: qRT-PCR FEN1 mRNA expression, A2780; details: 24 h exposure to cisplatin
Experimental: (1:200, ab26343). Infrared dye-labelled secondary antibodies (Li-Cor) [IRDye 800CW Donkey Anti-Rabbit IgG and IRDye 680CW Donkey Anti-Mouse IgG] were incubated at a dilution of 1:10000 for 1 h. Membranes were scanned with a LiCor Odyssey machine (700 and 800 nm) to determine protein expression. ß-Tubulin or ß-actin was used as a loading controls for the whole cell lysates. GADPH and YYI were used as loading controls to cytoplasmic and nuclear fractions, respectively. First incubation was with FEN1 antibody and then imaged. This was followed by incubation with loading control and then imaged for analysis. Bar charts show means of optical density (O.D.) ± S.D and all data is representative of at least three independent experiments. qRT-PCR analysis of FEN1 gene expre ssion: RNA was extracted using the RNeasy Mini Kit (74104, Qiagen) and quantified using a Nanodrop 2000c (Thermo Fisher Scientific). cDNA synthesis was performed using the RT2 First Strand Kit (330404, Qiagen). Real time PCR was carried out on an Applied Biosystems […] FAST cycler.
Neutral COMET assay: 1.0x10^5 cells per well were seeded in 6 well tissue culture plates and incubated at 37°C and 5% CO2 overnight. […] Fifty comets were scored per sample using Comet Assay III/IV image analysis software (Perceptive Instruments, Bury St Edmonds, UK). […]

In the case of `Cc1csc2c1c(=O)n(O)c(=O)n2-c1ccccc1` [PTPD, 3-hydroxy-5-methyl-1-phenylthieno [2,3 d]pyrimidine-2,4(1H,3H)-dione], the “sensitivity to FEN1 inhibitor” value [1] is reported as “did not observe increased sensitivity”, the “cell death in 3D spheroids” value [2] is reported as “increased cell death” and the apoptosis [3] is reported as “apoptosis”.
With `N.N.[Cl][Pt][Cl]` [cisplatin] the “FEN1 mRNA expression after cisplatin” value [4] was “transient induction of FEN1 mRNA expression on day 1”.
